Laboratory results as given in ChEMBL document CHEMBL1201862, “PubChem BioAssay data set” (2004).
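Cells were grown in 96-well plates and exposed to each compound for 48 hours at five concentrations; endpoints were interpolated linearly between bracketing concentrations, or set to the highest concentration if not reached. GI50 = concentration required for 50% inhibition of growth.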 The source made the active and inactive calls. No stated cut-off is given here; in the data, active = GI50 up to about 1.1 µM and inactive = higher.

Key:
Assay in all cases: inhibition of tumour cell growth, NCI panel, 48 h
[1] = test system: 786-0
[2] = test system: A498
[3] = test system: A549
[4] = test system: ACHN
[5] = test system: BT-549
[6] = test system: CAKI-1
[7] = test system: CCRF-CEM
[8] = test system: COLO 205
[9] = test system: DU-145
[10] = test system: EKVX
[11] = test system: HCC 2998
[12] = test system: HCT-116
[13] = test system: HCT-15
[14] = test system: HL-60
[15] = test system: HOP-62
[16] = test system: HOP-92
[17] = test system: HT-29
[18] = test system: Hs-578T
[19] = test system: IGROV-1
[20] = test system: K562
[21] = test system: KM12
[22] = test system: LOX IMVI
[23] = test system: M14
[24] = test system: MCF7
[25] = test system: MDA-MB-231
[26] = test system: MDA-MB-435
[27] = test system: MDA-N
[28] = test system: MOLT-4
[29] = test system: Malme-3M
[30] = test system: NCI-H226
[31] = test system: NCI-H23
[32] = test system: NCI-H460
[33] = test system: NCI-H522
[34] = test system: NCI/ADR-RES
[35] = test system: OVCAR-3
[36] = test system: OVCAR-4
[37] = test system: OVCAR-5
[38] = test system: OVCAR-8
[39] = test system: PC-3
[40] = test system: RPMI-8226
[41] = test system: RXF 393
[42] = test system: SF-268
[43] = test system: SF-295
[44] = test system: SF-539
[45] = test system: SK-MEL-28
[46] = test system: SK-MEL-2
[47] = test system: SK-MEL-5
[48] = test system: SK-OV-3
[49] = test system: SN12C
[50] = test system: SNB-19
[51] = test system: SNB-75
[52] = test system: SR
[53] = test system: SW-620
[54] = test system: T47D
[55] = test system: TK-10
[56] = test system: U-251
[57] = test system: UACC-257
[58] = test system: UACC-62
[59] = test system: UO-31

With `N#Cc1c(-c2ccccc2)c(/N=N/c2ccc(F)cc2)c(=O)n2c1[nH]c1ccccc12` as the molecule, how does the GI50 [1] read?
Its GI50 is 3.65 µM (inactive).

And the GI50 [2]?
Its GI50 is 8.02 µM (inactive).

What about the GI50 [3] of the same molecule?
The GI50 was 3.08 µM (inactive).

What about the GI50 [4] of the same molecule?
Its GI50 is 5.64 µM (inactive).

And the GI50 [5]?
Its GI50 is 8.85 µM (inactive).

And the GI50 [6]?
The GI50 was 3.92 µM (inactive).

And the GI50 [7]?
The GI50 was 1.26 µM (inactive).

What about the GI50 [8] of the same molecule?
The GI50 was 3.43 µM (inactive).

And the GI50 [9]?
The GI50 was 4.48 µM (inactive).

And the GI50 [10]?
The GI50 was 2.45 µM (inactive).

What about the GI50 [11] of the same molecule?
Its GI50 is 6.24 µM (inactive).

What about the GI50 [12] of the same molecule?
The GI50 was 2.03 µM (inactive).

What about the GI50 [13] of the same molecule?
The GI50 was 3330 nM.

And the GI50 [14]?
The GI50 was 1.46 µM (inactive).

What about the GI50 [15] of the same molecule?
The GI50 was 6.15 µM (inactive).

What about the GI50 [16] of the same molecule?
Its GI50 is 2.18 µM (inactive).

What about the GI50 [17] of the same molecule?
Its GI50 is 2.92 µM (inactive).

What about the GI50 [18] of the same molecule?
The GI50 was 4.43 µM (inactive).

What about the GI50 [19] of the same molecule?
The GI50 was 2.69 µM (inactive).

And the GI50 [20]?
The GI50 was 3.18 µM (inactive).

And the GI50 [21]?
The GI50 was 3.15 µM (inactive).

And the GI50 [22]?
Its GI50 is 9.35 µM (inactive).

What about the GI50 [23] of the same molecule?
Its GI50 is 3.54 µM (inactive).

And the GI50 [24]?
Its GI50 is 4.51 µM (inactive).

And the GI50 [25]?
The GI50 was 5.21 µM (inactive).

What about the GI50 [26] of the same molecule?
Its GI50 is 4.7 µM (inactive).

And the GI50 [27]?
The GI50 was 4.17 µM (inactive).

And the GI50 [28]?
The GI50 was 2.3 µM (inactive).

What about the GI50 [29] of the same molecule?
Its GI50 is 7.6 µM (inactive).

What about the GI50 [30] of the same molecule?
Its GI50 is 7.28 µM (inactive).

What about the GI50 [31] of the same molecule?
Its GI50 is 5.28 µM (inactive).

What about the GI50 [32] of the same molecule?
The GI50 was 2.31 µM (inactive).

And the GI50 [33]?
Its GI50 is 2.18 µM (inactive).

What about the GI50 [34] of the same molecule?
The GI50 was 3 µM (inactive).

And the GI50 [35]?
Its GI50 is 2.14 µM (inactive).

And the GI50 [36]?
Its GI50 is 4.09 µM (inactive).

And the GI50 [37]?
Its GI50 is 5.94 µM (inactive).

And the GI50 [38]?
Its GI50 is 2.34 µM (inactive).

And the GI50 [39]?
Its GI50 is 3.4 µM (inactive).

What about the GI50 [40] of the same molecule?
The GI50 was 708 nM (active).

What about the GI50 [41] of the same molecule?
The GI50 was 10.4 µM (inactive).

What about the GI50 [42] of the same molecule?
The GI50 was 6.43 µM (inactive).

What about the GI50 [43] of the same molecule?
Its GI50 is 5.25 µM (inactive).

What about the GI50 [44] of the same molecule?
Its GI50 is 10.9 µM (inactive).

And the GI50 [45]?
Its GI50 is 8.39 µM (inactive).

What about the GI50 [46] of the same molecule?
The GI50 was 18.2 µM (inactive).

What about the GI50 [47] of the same molecule?
Its GI50 is 1.53 µM (inactive).

What about the GI50 [48] of the same molecule?
The GI50 was 4.86 µM (inactive).

What about the GI50 [49] of the same molecule?
Its GI50 is 1.84 µM (inactive).

What about the GI50 [50] of the same molecule?
Its GI50 is 5.05 µM (inactive).

What about the GI50 [51] of the same molecule?
Its GI50 is 13.2 µM (inactive).

What about the GI50 [52] of the same molecule?
Its GI50 is 3.81 µM (inactive).

What about the GI50 [53] of the same molecule?
Its GI50 is 4.28 µM (inactive).

What about the GI50 [54] of the same molecule?
Its GI50 is 4.05 µM (inactive).

What about the GI50 [55] of the same molecule?
Its GI50 is 5.57 µM (inactive).

What about the GI50 [56] of the same molecule?
The GI50 was 3.66 µM (inactive).

And the GI50 [57]?
Its GI50 is 3.21 µM (inactive).

What about the GI50 [58] of the same molecule?
The GI50 was 4.82 µM (inactive).

What about the GI50 [59] of the same molecule?
Its GI50 is 2.97 µM (inactive).

How did the GI50 [1] turn out when `CC(=O)O[C@H]1C(=O)[C@@]2(C)[C@H]([C@H](OC(=O)c3ccccc3)[C@]3(O)C[C@H](OC(=O)[C@H](O)[C@@H](NC(=O)CC(C)C)c4ccccc4)C(C)=C1C3(C)C)[C@]1(OC(C)=O)CO[C@@H]1C[C@@H]2O` was run?
The GI50 was 0.0378 µM (active).

And the GI50 [2]?
The GI50 was 0.247 µM (active).

What about the GI50 [3] of the same molecule?
The GI50 was 0.00637 µM (active).

And the GI50 [4]?
The GI50 was 0.157 µM (active).

And the GI50 [5]?
Its GI50 is 0.248 µM (active).

What about the GI50 [6] of the same molecule?
The GI50 was 0.378 µM (active).

What about the GI50 [7] of the same molecule?
Its GI50 is 0.00198 µM (active).

And the GI50 [8]?
The GI50 was 0.00178 µM (active).

What about the GI50 [9] of the same molecule?
The GI50 was 0.0232 µM (active).

And the GI50 [10]?
Its GI50 is 0.428 µM (active).

And the GI50 [11]?
Its GI50 is 0.00303 µM (active).

And the GI50 [12]?
The GI50 was 0.00167 µM (active).

What about the GI50 [13] of the same molecule?
Its GI50 is 547 nM.

What about the GI50 [14] of the same molecule?
The GI50 was 0.00111 µM (active).

And the GI50 [15]?
The GI50 was 0.0221 µM (active).

And the GI50 [16]?
The GI50 was 0.508 µM (active).

What about the GI50 [17] of the same molecule?
The GI50 was < 0.001 µM (active).

What about the GI50 [18] of the same molecule?
The GI50 was 0.0018 µM (active).

And the GI50 [19]?
The GI50 was 0.00285 µM (active).

And the GI50 [20]?
The GI50 was 0.00179 µM (active).

What about the GI50 [22] of the same molecule?
Its GI50 is 0.00619 µM (active).

And the GI50 [24]?
Its GI50 is < 0.001 µM (active).

And the GI50 [25]?
Its GI50 is > 10 µM (inactive).

And the GI50 [26]?
The GI50 was < 0.001 µM (active).

And the GI50 [27]?
The GI50 was 0.0906 µM (active).

And the GI50 [28]?
Its GI50 is 0.00149 µM (active).

And the GI50 [29]?
Its GI50 is 0.0135 µM (active).

What about the GI50 [30] of the same molecule?
Its GI50 is 0.038 µM (active).

And the GI50 [31]?
The GI50 was 0.00321 µM (active).

And the GI50 [32]?
The GI50 was 0.00334 µM (active).

And the GI50 [33]?
The GI50 was 0.00247 µM (active).

And the GI50 [34]?
Its GI50 is > 8.61 µM (inactive).

What about the GI50 [36] of the same molecule?
The GI50 was > 10 µM (inactive).

And the GI50 [37]?
The GI50 was 0.226 µM (active).

And the GI50 [38]?
The GI50 was 0.00548 µM (active).

And the GI50 [39]?
The GI50 was 0.00281 µM (active).

What about the GI50 [40] of the same molecule?
The GI50 was < 1 nM (active).

And the GI50 [41]?
Its GI50 is 0.0141 µM (active).

What about the GI50 [42] of the same molecule?
The GI50 was 0.00486 µM (active).

And the GI50 [43]?
The GI50 was 0.0445 µM (active).

And the GI50 [44]?
Its GI50 is 0.00204 µM (active).

What about the GI50 [45] of the same molecule?
Its GI50 is 0.00318 µM (active).

And the GI50 [46]?
The GI50 was 0.00239 µM (active).

What about the GI50 [47] of the same molecule?
The GI50 was 0.00251 µM (active).

And the GI50 [48]?
The GI50 was 0.00433 µM (active).

And the GI50 [49]?
The GI50 was 0.00524 µM (active).

What about the GI50 [50] of the same molecule?
The GI50 was 0.607 µM (active).

And the GI50 [51]?
Its GI50 is < 0.001 µM (active).

What about the GI50 [52] of the same molecule?
Its GI50 is 0.00171 µM (active).

And the GI50 [53]?
The GI50 was 0.00289 µM (active).

What about the GI50 [54] of the same molecule?
The GI50 was 0.00399 µM (active).

And the GI50 [55]?
The GI50 was 0.0383 µM (active).

What about the GI50 [56] of the same molecule?
The GI50 was 0.00879 µM (active).

What about the GI50 [57] of the same molecule?
Its GI50 is 0.015 µM (active).

What about the GI50 [58] of the same molecule?
The GI50 was 0.00475 µM (active).

What about the GI50 [59] of the same molecule?
The GI50 was 2.48 µM (inactive).
